These results are taken from paper PMC12708883 (Frontiers in Microbiology, 2025).

For data set [1], the target named is YhjE (Escherichia coli, UniProt P37643, T276I). As to the kind of experiment: radiolabelled uptake into whole cells, […] min. The class given is cell-based. To be noted: 50 μM substrate, M9 + 0.2% glucose, 37 °C; B2933 with mutant pBR-yhjE; labelled compound.
The target in another data set is T1, LIV-I (LivJFGHM) (Escherichia coli, UniProt P0AD96).
T1 construct: gene livJ; native chromosomal genes, sole carrier in brnQ yhjE double mutant cells
As to the kind of experiment: radiolabelled uptake into whole cells, […] min. In kind it is cell-based. The following applies: sole carrier strain, M9 + 0.2% glucose, 37 °C; labelled compound.

Data set [2] deals with YhjE (Escherichia coli, UniProt P37643, S271F/V290M). As to the kind of experiment: radiolabelled uptake into whole cells, […] min. In kind it is cell-based. To be noted: 50 μM substrate, M9 + 0.2% glucose, 37 °C; B2933 with mutant pBR-yhjE; labelled compound.
In a further data set the target is T2, BrnQ (Escherichia coli, UniProt P0AD99).
T2 construct: native chromosomal gene, sole carrier in livKHMGF yhjE double mutant cells
As to the kind of experiment: radiolabelled uptake into whole cells, […] min. The class given is cell-based. The following applies: sole carrier strain, M9 + 0.2% glucose, 37 °C; labelled compound.

Data set [3] concerns the target YhjE (Escherichia coli, UniProt P37643, T273I). As to the kind of experiment: radiolabelled uptake into whole cells, […] min. The class given is cell-based. To be noted: 50 μM substrate, M9 + 0.2% glucose, 37 °C; B2933 with mutant pBR-yhjE; labelled compound.
Data set [4] concerns the target YhjE (Escherichia coli, UniProt P37643, M359I). As to the kind of experiment: radiolabelled uptake into whole cells, […] min. The class given is cell-based. To be noted: 50 μM substrate, M9 + 0.2% glucose, 37 °C; B2933 with mutant pBR-yhjE; labelled compound.
For data set [5], the target named is YhjE (Escherichia coli, UniProt P37643, P55S). As to the kind of experiment: radiolabelled uptake into whole cells, […] min. In kind it is cell-based. To be noted: 50 μM substrate, M9 + 0.2% glucose, 37 °C; B2933 with mutant pBR-yhjE; labelled compound.
Data set [6] has as its target T3, YhjE (Escherichia coli, UniProt P37643).
T3 sequence (P37643 1-440): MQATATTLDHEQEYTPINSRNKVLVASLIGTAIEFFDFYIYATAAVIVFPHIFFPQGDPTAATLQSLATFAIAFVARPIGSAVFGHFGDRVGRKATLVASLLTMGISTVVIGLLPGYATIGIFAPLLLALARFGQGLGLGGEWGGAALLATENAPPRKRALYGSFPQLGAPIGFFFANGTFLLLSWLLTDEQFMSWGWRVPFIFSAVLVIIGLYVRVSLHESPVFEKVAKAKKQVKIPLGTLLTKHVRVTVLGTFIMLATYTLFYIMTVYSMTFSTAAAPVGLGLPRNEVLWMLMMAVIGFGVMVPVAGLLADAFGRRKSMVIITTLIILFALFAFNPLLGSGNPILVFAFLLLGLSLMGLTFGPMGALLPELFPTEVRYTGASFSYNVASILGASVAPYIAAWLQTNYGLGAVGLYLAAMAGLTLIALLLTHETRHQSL
As to the kind of experiment: inhibition of L-[3H]isoleucine uptake into whole cells, […] min. The class given is cell-based. The following applies: 50 μM L-[3H]isoleucine, M9 + 0.2% glucose, 37 °C; B2394[pBR-yhjE]; single replicate.

Substrate in data set [7]: CC(C)[C@H](N)C(=O)O
As to the kind of experiment: radiolabelled uptake into whole cells. In kind it is cell-based, Escherichia coli. To be noted: M9 + 0.2% glucose, 37 °C, B2933[pUC-yhjE], proton symport, labelled compound.

Substrate in data set [8]: CC[C@H](C)[C@H](N)C(=O)O
As to the kind of experiment: radiolabelled uptake into whole cells. To be noted: M9 + 0.2% glucose, 37 °C, B2933[pUC-yhjE], proton symport, labelled compound. The class given is cell-based, Escherichia coli.

Sequence of YhjE (Escherichia coli, UniProt P37643, M359I) (P37643 whole entry M359I): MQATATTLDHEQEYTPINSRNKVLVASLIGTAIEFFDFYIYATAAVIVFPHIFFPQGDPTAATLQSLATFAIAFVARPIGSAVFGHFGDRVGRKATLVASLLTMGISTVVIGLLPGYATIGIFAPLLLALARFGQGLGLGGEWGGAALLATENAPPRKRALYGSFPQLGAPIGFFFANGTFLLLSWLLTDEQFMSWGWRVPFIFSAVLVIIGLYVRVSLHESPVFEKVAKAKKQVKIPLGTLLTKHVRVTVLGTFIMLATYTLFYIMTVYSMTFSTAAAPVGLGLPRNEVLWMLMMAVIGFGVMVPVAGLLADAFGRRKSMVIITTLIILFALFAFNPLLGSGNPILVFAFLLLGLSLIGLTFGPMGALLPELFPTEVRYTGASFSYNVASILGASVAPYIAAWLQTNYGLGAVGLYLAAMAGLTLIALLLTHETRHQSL
Sequence of YhjE (Escherichia coli, UniProt P37643, P55S) (P37643 whole entry P55S): as the sequence (P37643 whole entry M359I) above, with P55S, I359M counted along it
T2 sequence (P0AD99 whole entry): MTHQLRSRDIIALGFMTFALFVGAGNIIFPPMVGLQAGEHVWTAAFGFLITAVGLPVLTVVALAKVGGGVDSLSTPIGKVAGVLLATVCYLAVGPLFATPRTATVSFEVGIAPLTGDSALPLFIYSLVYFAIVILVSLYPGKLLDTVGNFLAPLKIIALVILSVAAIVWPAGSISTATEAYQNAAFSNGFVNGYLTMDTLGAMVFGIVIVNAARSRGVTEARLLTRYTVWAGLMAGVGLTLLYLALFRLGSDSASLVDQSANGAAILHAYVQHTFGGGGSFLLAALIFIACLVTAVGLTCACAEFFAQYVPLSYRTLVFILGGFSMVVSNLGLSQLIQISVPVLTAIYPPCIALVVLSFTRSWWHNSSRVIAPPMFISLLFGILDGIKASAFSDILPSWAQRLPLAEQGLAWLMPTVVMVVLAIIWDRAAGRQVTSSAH
Sequence of YhjE (Escherichia coli, UniProt P37643, T273I) (P37643 whole entry T273I): as the sequence (P37643 whole entry M359I) above, with T273I, I359M counted along it
Sequence of YhjE (Escherichia coli, UniProt P37643, S271F/V290M) (P37643 whole entry S271F/V290M): as the sequence (P37643 whole entry M359I) above, with S271F, V290M, I359M counted along it
Sequence of YhjE (Escherichia coli, UniProt P37643, T276I) (P37643 whole entry T276I): as the sequence (P37643 whole entry M359I) above, with T276I, I359M counted along it
T1 sequence (P0AD96 24-367): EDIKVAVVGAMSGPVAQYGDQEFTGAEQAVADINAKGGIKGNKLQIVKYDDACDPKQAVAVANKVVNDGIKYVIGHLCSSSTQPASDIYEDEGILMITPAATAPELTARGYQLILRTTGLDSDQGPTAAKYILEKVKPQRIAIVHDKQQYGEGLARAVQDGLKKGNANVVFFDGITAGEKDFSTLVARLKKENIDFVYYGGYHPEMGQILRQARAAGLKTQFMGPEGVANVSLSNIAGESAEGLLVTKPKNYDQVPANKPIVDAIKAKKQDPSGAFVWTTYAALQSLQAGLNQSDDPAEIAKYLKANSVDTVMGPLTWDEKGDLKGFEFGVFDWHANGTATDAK
T1 sequence (P0AEX7 whole entry partner): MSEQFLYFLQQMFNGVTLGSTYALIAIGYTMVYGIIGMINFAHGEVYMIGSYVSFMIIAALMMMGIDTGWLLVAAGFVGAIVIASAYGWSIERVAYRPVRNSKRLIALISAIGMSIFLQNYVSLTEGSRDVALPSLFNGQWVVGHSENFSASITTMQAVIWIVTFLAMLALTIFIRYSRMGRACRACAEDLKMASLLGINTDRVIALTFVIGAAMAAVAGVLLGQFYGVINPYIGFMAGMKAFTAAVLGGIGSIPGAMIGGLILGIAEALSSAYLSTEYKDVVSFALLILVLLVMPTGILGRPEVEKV
T1 sequence (P22729 whole entry partner): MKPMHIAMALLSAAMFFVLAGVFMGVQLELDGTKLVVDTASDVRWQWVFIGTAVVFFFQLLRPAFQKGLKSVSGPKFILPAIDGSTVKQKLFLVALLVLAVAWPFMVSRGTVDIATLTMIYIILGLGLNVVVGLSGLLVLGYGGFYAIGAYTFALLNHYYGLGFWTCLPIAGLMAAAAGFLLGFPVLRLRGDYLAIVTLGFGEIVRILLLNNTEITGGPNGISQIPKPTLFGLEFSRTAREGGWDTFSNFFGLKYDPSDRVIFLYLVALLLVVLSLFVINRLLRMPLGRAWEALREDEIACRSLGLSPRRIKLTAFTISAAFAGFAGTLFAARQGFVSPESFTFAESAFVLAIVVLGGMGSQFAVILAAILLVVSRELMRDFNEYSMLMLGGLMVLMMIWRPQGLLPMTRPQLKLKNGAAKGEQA
T1 sequence (P22731 whole entry partner): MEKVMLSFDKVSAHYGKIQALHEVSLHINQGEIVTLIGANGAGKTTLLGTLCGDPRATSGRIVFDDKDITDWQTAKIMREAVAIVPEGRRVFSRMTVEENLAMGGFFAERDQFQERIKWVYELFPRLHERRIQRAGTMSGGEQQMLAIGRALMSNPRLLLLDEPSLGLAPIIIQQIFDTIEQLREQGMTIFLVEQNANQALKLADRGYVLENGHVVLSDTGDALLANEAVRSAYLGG
T1 sequence (P0A9S7 whole entry partner): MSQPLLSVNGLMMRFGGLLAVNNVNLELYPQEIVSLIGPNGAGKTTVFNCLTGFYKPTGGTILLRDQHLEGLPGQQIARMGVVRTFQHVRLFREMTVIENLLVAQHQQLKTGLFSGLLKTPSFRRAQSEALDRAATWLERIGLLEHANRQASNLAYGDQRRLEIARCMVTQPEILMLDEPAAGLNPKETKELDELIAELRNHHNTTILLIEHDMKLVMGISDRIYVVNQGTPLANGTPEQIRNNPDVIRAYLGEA

For the molecule `CC[C@H](C)[C@H](N)C(=O)O` [L-isoleucine], the uptake rate entry on YhjE [1] was “L-isoleucine uptake was concomitantly reduced”; on LIV-I (LivJFGHM), “Comparison of L-isoleucine–specific activity of YhjE, LIV-I, and BrnQ”; on YhjE [2], “L-isoleucine uptake was concomitantly reduced”; on BrnQ, “Comparison of L-isoleucine–specific activity of YhjE, LIV-I, and BrnQ”; at YhjE [3], “L-isoleucine uptake was concomitantly reduced”; at YhjE [4], “L-isoleucine uptake was concomitantly reduced”. Moreover, on YhjE [5], the uptake rate result is “L-isoleucine uptake was concomitantly reduced”.
On to `CC(C)C[C@H](N)C(=O)O` [L-leucine], for which the uptake rate result is listed as “The lowest effect was observed for the T276I substitution” on YhjE [1]; “In every case, L-leucine uptake was elevated relative to cells harboring the wild-type pBR-yhjE” on YhjE [2]; “In every case, L-leucine uptake was elevated relative to cells harboring the wild-type pBR-yhjE” at YhjE [3]; “YhjE M359I variant exhibited L-leucine transport activity more than twofold higher than the wild type” at YhjE [4]; “In every case, L-leucine uptake was elevated relative to cells harboring the wild-type pBR-yhjE” at YhjE [5].
For `N[C@@H](CS)C(=O)O` [L-cysteine], the “% inhibition at 30-fold molar excess” value on YhjE [6] is “L-tyrosine and L-cysteine, which are structurally unrelated to branched-chain amino acids, produced pronounced inhibitory effects”.
In the case of `N[C@@H](Cc1ccc(O)cc1)C(=O)O` [L-tyrosine], the “% inhibition at 30-fold molar excess” value on YhjE [6] was “L-tyrosine and L-cysteine, which are structurally unrelated to branched-chain amino acids, produced pronounced inhibitory effects”.
As to `CC(C)[C@H](N)C(=O)O` [L-valine], the uptake rate result at BrnQ is “Comparison of L-valine–specific activity of YhjE, LIV-I, and BrnQ”.

B1: YhjE (Escherichia coli K-12) (protein)
chain: MQATATTLDHEQEYTPINSRNKVLVASLIGTAIEFFDFYIYATAAVIVFPHIFFPQGDPTAATLQSLATFAIAFVARPIGSAVFGHFGDRVGRKATLVASLLTMGISTVVIGLLPGYATIGIFAPLLLALARFGQGLGLGGEWGGAALLATENAPPRKRALYGSFPQLGAPIGFFFANGTFLLLSWLLTDEQFMSWGWRVPFIFSAVLVIIGLYVRVSLHESPVFEKVAKAKKQVKIPLGTLLTKHVRVTVLGTFIMLATYTLFYIMTVYSMTFSTAAAPVGLGLPRNEVLWMLMMAVIGFGVMVPVAGLLADAFGRRKSMVIITTLIILFALFAFNPLLGSGNPILVFAFLLLGLSLMGLTFGPMGALLPELFPTEVRYTGASFSYNVASILGASVAPYIAAWLQTNYGLGAVGLYLAAMAGLTLIALLLTHETRHQSL
As for B1, the Km in data set [7] came to 86.7 µM; in data set [8] it was 70.5 µM.

A word on the Km: it is the concentration of substrate that gives half-maximal velocity.
